# Laboratory results published in PubChem BioAssay (NCI).
# Where “and” joins values, the source holds several entries; their conditions need not be identical. Equal entries are not always repeated.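 All cell lines were grown in 96-well plates and treated with compound for 48 hours. Abbreviation: GI50, concentration required for 50% inhibition of growth. TGI: concentration producing complete growth inhibition.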
# Tests used:
# Assay in all cases: DTP human tumour cell line panel, 48 h
# U251 CNS = system: U251 CNS
# IGROV1 ovarian = system: IGROV1 ovarian
# RXF 393 renal = system: RXF 393 renal
# SF-539 CNS = system: SF-539 CNS
# HCT-116 colon = system: HCT-116 colon
# EKVX NSCLC = system: EKVX NSCLC
# LOX IMVI melanoma = system: LOX IMVI melanoma
# PC-3 prostate = system: PC-3 prostate
# MALME-3M melanoma = system: MALME-3M melanoma
# SW-620 colon = system: SW-620 colon
# MOLT-4 leukemia = system: MOLT-4 leukemia
# NCI-H23 lung = system: NCI-H23 lung
# MDA-MB-231 breast = system: MDA-MB-231 breast
# CAKI-1 renal = system: CAKI-1 renal
# KM12 colon = system: KM12 colon
# HCT-15 colon = system: HCT-15 colon
# T-47D breast = system: T-47D breast
# TK-10 renal = system: TK-10 renal
# HS 578T breast = system: HS 578T breast
# COLO 205 colon = system: COLO 205 colon
# MCF7 breast = system: MCF7 breast
# HCC-2998 colon = system: HCC-2998 colon
# NCI-H226 lung = system: NCI-H226 lung
# NCI-H522 lung = system: NCI-H522 lung
# UACC-62 melanoma = system: UACC-62 melanoma
# MDA-MB-468 breast = system: MDA-MB-468 breast
# A498 renal = system: A498 renal
# OVCAR-4 ovarian = system: OVCAR-4 ovarian
# M14 melanoma = system: M14 melanoma
# SK-MEL-28 melanoma = system: SK-MEL-28 melanoma
# SNB-75 CNS = system: SNB-75 CNS
# SF-268 CNS = system: SF-268 CNS
# SNB-19 CNS = system: SNB-19 CNS
# BT-549 breast = system: BT-549 breast
# SN12C renal = system: SN12C renal
# NCI-H460 lung = system: NCI-H460 lung
# HL-60(TB) leukemia = system: HL-60(TB) leukemia
# HOP-62 NSCLC = system: HOP-62 NSCLC
# UACC-257 melanoma = system: UACC-257 melanoma
# ACHN renal = system: ACHN renal
# SK-MEL-5 melanoma = system: SK-MEL-5 melanoma
# CCRF-CEM leukemia = system: CCRF-CEM leukemia
# SK-MEL-2 melanoma = system: SK-MEL-2 melanoma
# SR leukemia = system: SR leukemia
# RPMI-8226 leukemia = system: RPMI-8226 leukemia
# HT29 colon = system: HT29 colon
# UO-31 renal = system: UO-31 renal
# OVCAR-5 ovarian = system: OVCAR-5 ovarian
# OVCAR-3 ovarian = system: OVCAR-3 ovarian
# A549 NSCLC = system: A549 NSCLC
# NCI/ADR-RES ovarian = system: NCI/ADR-RES ovarian
# K-562 leukemia = system: K-562 leukemia
# OVCAR-8 ovarian = system: OVCAR-8 ovarian
# SK-OV-3 ovarian = system: SK-OV-3 ovarian
# DU-145 prostate = system: DU-145 prostate
# MDA-MB-435 = system: MDA-MB-435
# SF-295 CNS = system: SF-295 CNS
# 786-0 renal = system: 786-0 renal
# HOP-92 NSCLC = system: HOP-92 NSCLC
smiles,measurement,setting,value
O=C(c1cc2cc(OCCCN3CCC3)ccc2[nH]1)N1C[C@@H](CCl)c2c1cc(OCc1ccccc1)c1ccccc21,GI50,U251 CNS,247 nM and 61.2 nM
same,TGI,U251 CNS,1030 nM and 2390 nM
same,GI50,IGROV1 ovarian,310 nM and 189 nM
same,TGI,IGROV1 ovarian,1470 nM and 1330 nM
same,GI50,RXF 393 renal,362 nM and 234 nM
same,TGI,RXF 393 renal,1630 nM and 509 nM
same,GI50,SF-539 CNS,225 nM and 295 nM
same,TGI,SF-539 CNS,1000 nM and 663 nM
same,GI50,HCT-116 colon,147 nM and 637 nM
same,TGI,HCT-116 colon,443 nM and 2460 nM
same,GI50,EKVX NSCLC,271 nM and 371 nM
same,TGI,EKVX NSCLC,1370 nM and 956 nM
same,GI50,LOX IMVI melanoma,132 nM and 56.4 nM
same,TGI,LOX IMVI melanoma,427 nM and 451 nM
same,GI50,PC-3 prostate,294 nM and 367 nM
same,TGI,PC-3 prostate,2630 nM and 4600 nM
same,GI50,MALME-3M melanoma,481 nM and 276 nM
same,TGI,MALME-3M melanoma,1790 nM and 557 nM
same,GI50,SW-620 colon,234 nM and 258 nM
same,TGI,SW-620 colon,1560 nM and 1280 nM
same,GI50,MOLT-4 leukemia,339 nM and 272 nM
same,TGI,MOLT-4 leukemia,4560 nM and 3870 nM
same,GI50,NCI-H23 lung,186 nM and 73 nM
same,TGI,NCI-H23 lung,619 nM and 318 nM
same,GI50,MDA-MB-231 breast,691 nM and 544 nM
same,TGI,MDA-MB-231 breast,2100 nM and 1360 nM
same,GI50,CAKI-1 renal,289 nM and 193 nM
same,TGI,CAKI-1 renal,1500 nM and 1680 nM
same,GI50,KM12 colon,731 nM and 813 nM
same,TGI,KM12 colon,2220 nM and 10100 nM
same,GI50,HCT-15 colon,171 nM and 134 nM
same,TGI,HCT-15 colon,838 nM and 787 nM
same,GI50,T-47D breast,375 nM and 202 nM
same,TGI,T-47D breast,1690 nM and 1040 nM
same,GI50,TK-10 renal,1530 nM and 562 nM
same,TGI,TK-10 renal,3000 nM and 1420 nM
same,GI50,HS 578T breast,1250 nM and 746 nM
same,TGI,HS 578T breast,3980 nM and 5990 nM
same,GI50,COLO 205 colon,629 nM and 280 nM
same,TGI,COLO 205 colon,1990 nM and 644 nM
same,GI50,MCF7 breast,10.5 nM and 3.22 nM
same,TGI,MCF7 breast,324 nM and 851 nM
same,GI50,HCC-2998 colon,255 nM and 319 nM
same,TGI,HCC-2998 colon,1230 nM and 660 nM
same,GI50,NCI-H226 lung,1210 nM and 211 nM
same,TGI,NCI-H226 lung,4340 nM and 631 nM
same,GI50,NCI-H522 lung,1230 nM and 384 nM
same,TGI,NCI-H522 lung,2870 nM and 929 nM
same,GI50,UACC-62 melanoma,145 nM and 62 nM
same,TGI,UACC-62 melanoma,481 nM and 325 nM
same,GI50,MDA-MB-468 breast,43.8 nM
same,TGI,MDA-MB-468 breast,130 nM
same,GI50,A498 renal,235 nM
same,TGI,A498 renal,633 nM
same,GI50,OVCAR-4 ovarian,1130 nM and 536 nM
same,TGI,OVCAR-4 ovarian,3010 nM and 1690 nM
same,GI50,M14 melanoma,283 nM and 212 nM
same,TGI,M14 melanoma,1210 nM and 653 nM
same,GI50,SK-MEL-28 melanoma,507 nM and 329 nM
same,TGI,SK-MEL-28 melanoma,1800 nM and 749 nM
same,GI50,SNB-75 CNS,1020 nM
same,TGI,SNB-75 CNS,2210 nM
same,GI50,SF-268 CNS,437 nM and 332 nM
same,TGI,SF-268 CNS,2420 nM and 2040 nM
same,GI50,SNB-19 CNS,687 nM and 333 nM
same,TGI,SNB-19 CNS,2330 nM and 2400 nM
same,GI50,BT-549 breast,384 nM and 530 nM
same,TGI,BT-549 breast,1720 nM and 2190 nM
same,GI50,SN12C renal,345 nM and 357 nM
same,TGI,SN12C renal,1500 nM and 2110 nM
same,GI50,NCI-H460 lung,121 nM and 17.1 nM
same,TGI,NCI-H460 lung,469 nM and 1120 nM
same,GI50,HL-60(TB) leukemia,1220 nM and 442 nM
same,TGI,HL-60(TB) leukemia,3560 nM and 4050 nM
same,GI50,HOP-62 NSCLC,214 nM and 139 nM
same,TGI,HOP-62 NSCLC,694 nM and 647 nM
same,GI50,UACC-257 melanoma,792 nM
same,TGI,UACC-257 melanoma,2300 nM
same,GI50,ACHN renal,78.5 nM and 34.6 nM
same,TGI,ACHN renal,248 nM and 96.7 nM
same,GI50,SK-MEL-5 melanoma,322 nM and 272 nM
same,TGI,SK-MEL-5 melanoma,1300 nM and 537 nM
same,GI50,CCRF-CEM leukemia,845 nM and 408 nM
same,TGI,CCRF-CEM leukemia,7750 nM and 17500 nM
same,GI50,SK-MEL-2 melanoma,1090 nM and 374 nM
same,TGI,SK-MEL-2 melanoma,2320 nM and 659 nM
same,GI50,SR leukemia,97.4 nM and 43.9 nM
same,TGI,SR leukemia,5010 nM
same,GI50,RPMI-8226 leukemia,941 nM and 496 nM
same,TGI,RPMI-8226 leukemia,9530 nM and 9500 nM
same,GI50,HT29 colon,285 nM and 273 nM
same,TGI,HT29 colon,1350 nM and 2000 nM
same,GI50,UO-31 renal,171 nM and 264 nM
same,TGI,UO-31 renal,449 nM and 681 nM
same,GI50,OVCAR-5 ovarian,302 nM and 345 nM
same,TGI,OVCAR-5 ovarian,1040 nM and 1060 nM
same,GI50,OVCAR-3 ovarian,1130 nM and 497 nM
same,TGI,OVCAR-3 ovarian,2620 nM and 1610 nM
same,GI50,A549 NSCLC,157 nM and 161 nM
same,TGI,A549 NSCLC,626 nM and 2540 nM
same,GI50,NCI/ADR-RES ovarian,252 nM
same,TGI,NCI/ADR-RES ovarian,1400 nM
same,GI50,K-562 leukemia,302 nM and 251 nM
same,TGI,K-562 leukemia,19800 nM
same,GI50,OVCAR-8 ovarian,274 nM and 242 nM
same,TGI,OVCAR-8 ovarian,1440 nM and 1530 nM
same,GI50,SK-OV-3 ovarian,401 nM and 453 nM
same,TGI,SK-OV-3 ovarian,1640 nM and 1720 nM
same,GI50,DU-145 prostate,254 nM and 82 nM
same,TGI,DU-145 prostate,1250 nM and 2920 nM
same,GI50,MDA-MB-435,1050 nM and 331 nM
same,TGI,MDA-MB-435,2270 nM and 739 nM
same,GI50,SF-295 CNS,154 nM and 46.1 nM
same,TGI,SF-295 CNS,447 nM and 230 nM
same,GI50,786-0 renal,293 nM and 266 nM
same,TGI,786-0 renal,913 nM and 1710 nM
same,GI50,HOP-92 NSCLC,1160 nM and 504 nM
same,TGI,HOP-92 NSCLC,3280 nM and 1830 nM
